According to ChEMBL document CHEMBL1201862, “PubChem BioAssay data set” (2004):
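How tested: cells in 96-well plates exposed to compound for 48 hours at five concentrations. Abbreviation: GI50, concentration required for 50% inhibition of growth.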 The source made the active and inactive calls. Rule as the data show it: active = GI50 up to about 1.1 µM and inactive = higher.

Experiments:
Assay in all cases: inhibition of tumour cell growth, NCI panel, 48 h
Malme-3M = test system: Malme-3M
M19-MEL = test system: M19-MEL
KM-20L2 = test system: KM-20L2
HOP-18 = test system: HOP-18
LXFL 529 = test system: LXFL 529
DMS-114 = test system: DMS-114
DLD-1 = test system: DLD-1
RXF 631 = test system: RXF 631

Row | SMILES | GI50 (Malme-3M) | GI50 (M19-MEL) | GI50 (KM-20L2) | GI50 (HOP-18) | GI50 (LXFL 529) | GI50 (DMS-114) | GI50 (DLD-1) | GI50 (RXF 631)
1 | O=c1c(-c2ccccc2)c(SCCN2CCOCC2)n(-c2ccccc2)c(=S)n1-c1ccccc1 | > 100 µM (inactive) | – | – | – | – | – | – | –
2 | CCNC(=S)NNC(=O)c1nsc2ccccc12 | – | 97.3 µM (inactive) | 64.9 µM (inactive) | 23.1 µM (inactive) | 53.3 µM (inactive) | 95.5 µM (inactive) | – | –
3 | CS(C)(=O)=Nn1c(=O)n2n(c1=O)C1c3ccccc3C2c2ccccc21 | > 100 µM (inactive) | – | – | – | – | – | – | –
4 | O=C(NNC(=S)Nc1ccccc1)c1nsc2ccccc12 | – | 28.9 µM (inactive) | 30.8 µM (inactive) | 10.3 µM (inactive) | 28.1 µM (inactive) | 24.9 µM (inactive) | – | –
5 | C=CCOC1OC(CS(=O)(=O)O)C(O)C(O)C1O (configuration not stated) | > 100 µM (inactive) | – | – | – | – | – | – | –
6 | CSC1SCC2C(=O)N(C)C(C(C)C)C(=O)OCC(NC(=O)c3cnc4ccccc4n3)C(=O)NC(C)C(=O)N(C)C1C(=O)N(C)C(C(C)C)C(=O)OCC(NC(=O)c1cnc3ccccc3n1)C(=O)NC(C)C(=O)N2C (configuration not stated) | – | – | 0.0075 µM (active) | 0.0075 µM (active) | – | 0.0104 µM (active) | 0.0075 µM (active) | –
7 | CN(C)C(=O)Oc1c(Br)cc(Br)cc1C(=O)OCc1ccccc1 | 24.9 µM (inactive) | 20 µM (inactive) | 22.8 µM (inactive) | 33.2 µM (inactive) | – | 19.1 µM (inactive) | 25.4 µM (inactive) | –
8 | CCN(CC)/[N+]([O-])=N/O | – | > 100 µM (inactive) | > 100 µM (inactive) | – | > 100 µM (inactive) | – | – | > 100 µM (inactive)
9 | COc1cc([C@@H]2c3cc4c(cc3[C@H](O)[C@H]3COC(=O)[C@H]23)OCO4)cc(OC)c1OC [PODOFILOX] | 3.01 µM (inactive) | – | – | > 100 µM (inactive) | 0.01 µM (active) | 0.01 µM (active) | 0.0243 µM (active) | –
